Earlier results, collected in US20230364135A1, “GUT-SELECTIVE SEQUESTERING AGENTS FOR THE TREATMENT AND PREVENTION OF AUTISM AND RELATED DISORDERS” (Axial Biotherapeutics, Inc., priority 2017, published 2023).

Tested on: naïve, wild-type mice
Settings: single bolus injection intraperitoneally

symptoms of anxiety: engendered symptoms of anxiety
Structure (SMILES): CCc1ccc(OS(=O)(=O)[O-])cc1.[K+] [4-EPS, 4-ethylphenylsulfate]
core symptoms of autism spectrum disorder: did not engender any core symptoms of autism spectrum disorder
